According to patent US20050112573A1, “Method of detecting toxic substance” (priority 2001, published 2005):

Test system: yeast genes (level of expressed mRNA)
Assay: DNA chip analysis of expressed mRNA of yeast genes after 2 h culture with a toxic chemical substance
Type: cell-based, Saccharomyces cerevisiae S288C
Details: for The level of expressed mRNA in the presence of chemical substance/ (ratio to absence): transport facilitation protein gene; for The level of expressed mRNA in the presence of chemical substance/: ratio to no chemical
Experimental: Yeast (Saccharomyces cerevtisiae S288C (α SUC2mal mel gap2 CUP1)) were cultured at 25° C. on YPD medium (yeast extract 1%, polypepton 2%, glucose 2%). One of toxic chemical substances was added to the cell at logarithmic growth phase, and the cell was further cultured for two hours. Cell was cultured without any chemical substance in the same condition, and was used as control. Concentrations of the chemical substances were defined to inhibit the growth of the yeast but not lead to death.
After the completion of cultivation, the culture was centrifuged to collect the cells. To the cells, sodium acetate buffer (50 mM sodium acetate, 10 mM EDTA, 1% SDS) was added, and the mixture was shaken at 65° C. for five minutes, followed by returning to room temperature, and obtaining the supernatant, which procedure was repeated two times. To the supernatant, ½ amount of a solution of phenol/chloroform was added, and the mixture was centrifuged to give a supernatant, which was added with an equal amount of chloroform, and the mixture was centrifuged to give a supernatant. To the supernatant, an equal amount of isopropanol containing 0.3 M sodium acetate was added, and the mixture was allowed to stand at room temperature for 30 minutes, after which the mixture was centrifuged to give a sediment of the whole RNAs. Seventy % ethanol was added to the sediment, and the mixture was again centrifuged to give a sediment, which was then dried and dissolved in water. mRNA was isolated from the whole RNAs as followings. In view of the fact that a poly A chain is attached to the 3′ terminus of mRNA, a polynucleotide having a poly T structure which was immobilized on the surface of latex beads was used to trap the mRNA, and then the mRNA was washed and eluted with spine column (Oligotex-dT30<Super>mRNA Purification Kit, Takara). Reverse transcription of the mRNA was conducted with a reverse transcriptase (Super Script II Reverse Transcriptase; catalogue No. 18064-014, GibcoBRL) using fluorescence-labeled nucleotides to give cDNAs that were introduced with Cy3-dUTP or Cy5-dUTP during the reverse transcription.
The labeled cDNAs were dissolved in TE buffer (10 mM Tris-HCl/1 mM EDTA, pH8.0), and the solution was dropped on the DNA chip containing the whole genes of yeast (DNA Chip Research Inc. Japan) so that the cDNAs were hybridized on the DNA chip at 65° C. for over 12 hours. The fluoresces intensity of the DNA chip was read with a scanner, and the ratio relative to the fluorescence intensity resulting from the absence of chemical substance was estimated as the following, which is shown in Tables 1 to 9: [formula]
In the Tables, “Intensity” indicated in the rightmost column is a value of the level of expressed mRNA of each gene in control cells as divided by the average level of the expressions of the whole genes.

Substance: sodium dodecylbenzosulfonate [(17)]
- The level of expressed mRNA in the presence of chemical substance/ (ratio to absence) (yeast gene YFL054C): 1.7
- The level of expressed mRNA in the presence of chemical substance/ (ratio to absence) (yeast gene YFL055W): 1.4
- The level of expressed mRNA in the presence of chemical substance/in the absence of chemical substance (yeast gene YFL056C): 1.0
- The level of expressed mRNA in the presence of chemical substance/in the absence of chemical substance (yeast gene YFL057C): 1.6
- The level of expressed mRNA in the presence of chemical substance/in the absence of chemical substance (yeast gene YFL061W): 1.2
- The level of expressed mRNA in the presence of chemical substance/ (yeast gene YFR017C): 0.9
- The level of expressed mRNA in the presence of chemical substance/ (yeast gene YFR042W): 1.7
- The level of expressed mRNA in the presence of chemical substance/ (ratio to absence) (yeast gene YFR045W): 0.9
- The level of expressed mRNA in the presence of chemical substance/ (yeast gene YFR046C): 1.2
- The level of expressed mRNA in the presence of chemical substance/in the absence of chemical substance (yeast gene YFR047C): 1.5
- The level of expressed mRNA in the presence of chemical substance/in the absence of chemical substance (yeast gene YFR053C): 1.4
- The level of expressed mRNA in the presence of chemical substance/ (ratio to absence) (yeast gene YGL008C): 1.1
- The level of expressed mRNA in the presence of chemical substance/ (in its absence), gene YGL035C (yeast gene YGL035C, ratio of DNA chip fluorescence intensity to that without chemical substance): 0.9
- The level of expressed mRNA in the presence of chemical substance/ (yeast gene YGL046W): 1.5
- The level of expressed mRNA in the presence of chemical substance/in the absence of chemical substance (yeast gene YGL062W): 1.1
- The level of expressed mRNA in the presence of chemical substance/ (yeast gene YGL067W): 0.9
- The level of expressed mRNA in the presence of chemical substance/ (yeast gene YGL098W): 1.1
- The level of expressed mRNA in the presence of chemical substance/ (ratio to absence) (yeast gene YGL104C): 1.3
- The level of expressed mRNA in the presence of chemical substance/ (yeast gene YGL114W): 0.9
- The level of expressed mRNA in the presence of chemical substance/ (in its absence), gene YGL115W (yeast gene YGL115W, ratio of DNA chip fluorescence intensity to that without chemical substance): 0.8
- The level of expressed mRNA in the presence of chemical substance/ (ratio to absence of chemical substance) (yeast gene YGL115W, stress protein genes, DNA chip): 0.8
- The level of expressed mRNA in the presence of chemical substance/ (yeast gene YGL117W): 2.1
- The level of expressed mRNA in the presence of chemical substance/ (yeast gene YGL146C): 1.0
- The level of expressed mRNA in the presence of chemical substance/in the absence of chemical substance (yeast gene YGL156W): 1.4
- The level of expressed mRNA in the presence of chemical substance/in the absence of chemical substance (yeast gene YGL157W): 1.8
- The level of expressed mRNA in the presence of chemical substance/The level of expressed mRNA in the absence of chemical substance (yeast gene YGL158W): 0.8
- The level of expressed mRNA in the presence of chemical substance/ (ratio to absence) (yeast gene YGL167C): 1.4
- The level of expressed mRNA in the presence of chemical substance/in the absence of chemical substance (yeast gene YGL184C): 1.0
- The level of expressed mRNA in the presence of chemical substance/ (ratio to absence), gene YGL187C (yeast gene YGL187C, mitochondria-located protein genes, 2 h culture with chemical): 0.9
- The level of expressed mRNA in the presence of chemical substance/ (yeast gene YGL193C): 1.1
- The level of expressed mRNA in the presence of chemical substance/ (yeast gene YGL204C): 0.9
- The level of expressed mRNA in the presence of chemical substance/ (in its absence), gene YGL205W (yeast gene YGL205W, ratio of DNA chip fluorescence intensity to that without chemical substance): 3.9
- The level of expressed mRNA in the presence of chemical substance/The level of expressed mRNA in the absence of chemical substance (yeast gene YGL229C): 1.1
- The level of expressed mRNA in the presence of chemical substance/ (yeast gene YGL250W): 1.2
- The level of expressed mRNA in the presence of chemical substance/ (ratio to absence) (yeast gene YGL255W): 0.6
- The level of expressed mRNA in the presence of chemical substance/ (yeast gene YGL259W): 0.9
- The level of expressed mRNA in the presence of chemical substance/ (yeast gene YGR011W): 0.9
- The level of expressed mRNA in the presence of chemical substance/in the absence of chemical substance (yeast gene YGR032W): 3.2
- The level of expressed mRNA in the presence of chemical substance/ (yeast gene YGR042W): 1.3
- The level of expressed mRNA in the presence of chemical substance/in the absence of chemical substance (yeast gene YGR043C): 1.6
- The level of expressed mRNA in the presence of chemical substance/ (yeast gene YGR053C): 1.5
- The level of expressed mRNA in the presence of chemical substance/ (ratio to absence) (yeast gene YGR055W): 0.7
- The level of expressed mRNA in the presence of chemical substance/ in its absence, gene YGR062C (yeast gene YGR062C, energy system protein genes, 2 h culture with the chemical, ratio to control without chemical): 0.9
- The level of expressed mRNA in the presence of chemical substance/ (ratio to absence), gene YGR062C (yeast gene YGR062C, mitochondria-located protein genes, 2 h culture with chemical): 0.9
- The level of expressed mRNA in the presence of chemical substance/ (ratio to absence) (yeast gene YGR065C): 0.7
- The level of expressed mRNA in the presence of chemical substance/ (yeast gene YGR066C): 1.0
- The level of expressed mRNA in the presence of chemical substance/ (in its absence), gene YGR096W (yeast gene YGR096W, ratio of DNA chip fluorescence intensity to that without chemical substance): 0.8
